# Assays:
# Assay in all cases: relative viability (nuclei count vs DMSO), 5 days (fraction); higher = more cells survive
# [1] = compound: CC(C)(C)c1nc(-c2cccc(NS(=O)(=O)c3c(F)cccc3F)c2F)c(-c2ccnc(N)n2)s1 [Dabrafenib] + Cc1nc(Nc2ncc(C(=O)Nc3c(C)cccc3Cl)s2)cc(N2CCN(CCO)CC2)n1 [Dasatinib] (partner 0.075 µM)
# How it was run: (§1)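 After 5 days of treatment, lung cancer cells in 1536-well plates were fixed and stained in a single step (final 0.05% Triton X-100, 1% formaldehyde, 1 ug/ml Hoechst) and their nuclei counted on 4× images. Treatment had been applied by pin tool the day after seeding as one drug alone or as a fixed anchor-drug dose with five library-drug doses (not always all listed) in √10 steps. Relative viability is the nuclei count of treated wells divided by that of vehicle wells, and values are medians of duplicate plates.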
# [2] = compound: NC(=O)c1ccc(N(C(N)=O)c2c(F)cccc2F)nc1-c1ccc(F)cc1F [VX-702] + CC(C)C[C@H](NC(=O)[C@H](Cc1ccccc1)NC(=O)c1cnccn1)B(O)O [Bortezomib] (partner 0.002 µM)
# How it was run: as §1
# [3] = compound: NC(=O)c1ccc(N(C(N)=O)c2c(F)cccc2F)nc1-c1ccc(F)cc1F [VX-702] + Cc1cc(Nc2cc(N3CCN(C)CC3)nc(Sc3ccc(NC(=O)C4CC4)cc3)n2)n[nH]1 [Tozasertib] (partner 0.1 µM)
# How it was run: as §1
# [4] = compound: NC(=O)c1ccc(N(C(N)=O)c2c(F)cccc2F)nc1-c1ccc(F)cc1F [VX-702] + Nc1nc2[nH]cc(CCc3ccc(C(=O)N[C@@H](CCC(=O)O)C(=O)O)cc3)c2c(=O)[nH]1 [Pemetrexed] (partner 0.2 µM)
# How it was run: as §1
Cell Line,relative viability ([1]; first compound 0.003 µM),relative viability ([1]; first compound 0.009487 µM),relative viability ([1]; first compound 0.03 µM),relative viability ([1]; first compound 0.09487 µM),relative viability ([1]; first compound 0.3 µM),relative viability ([2]; first compound 0.02 µM),relative viability ([2]; first compound 0.2 µM),relative viability ([2]; first compound 0.6325 µM),relative viability ([2]; first compound 2 µM),relative viability ([3]; first compound 0.02 µM),relative viability ([3]; first compound 0.2 µM),relative viability ([3]; first compound 0.6325 µM),relative viability ([3]; first compound 2 µM),relative viability ([4]; first compound 0.02 µM),relative viability ([4]; first compound 0.2 µM),relative viability ([4]; first compound 0.6325 µM),relative viability ([4]; first compound 2 µM)
PC-14,0.276,0.297,0.271,0.251,0.281,0.888,0.852,0.854,0.991,0.559,0.527,0.551,0.587,0.142,0.15,0.124,0.119
RERF-LC-KJ,0.73,0.919,0.92,0.799,0.989,1.18,1.06,1.2,1.28,0.538,0.477,0.541,0.463,0.504,0.6,0.484,0.454
ChaGo-K-1,0.477,0.487,0.56,0.586,0.559,0.911,0.861,1.06,1.22,0.214,0.23,0.223,0.225,0.249,0.257,0.269,0.26
H3255,0.285,0.425,0.341,0.421,0.377,0.716,0.772,1.02,0.917,0.576,0.792,0.655,0.8,0.565,0.612,0.551,0.599
NCI-H1299,,,,,,1.09,1.03,1.12,1.09,,,,,,,,
NCI-H1563,0.408,0.46,0.459,0.461,0.456,0.812,0.891,0.918,0.616,,,,,0.751,0.785,0.601,0.639
SK-MES-1,0.323,0.412,0.417,0.317,0.289,,,,,0.92,0.944,0.914,0.995,0.936,0.89,0.891,0.979
NCI-H1648,,,,,,,,,,0.419,0.42,0.397,0.426,0.737,0.617,0.75,0.818
NCI-H1755,0.419,0.38,0.405,0.403,0.337,0.964,0.911,1.07,0.979,0.599,0.592,0.597,0.653,0.473,0.404,0.384,0.378
NCI-H1651,0.355,0.411,0.373,0.442,0.435,0.958,0.96,0.95,1.03,0.728,0.753,0.624,0.829,0.523,0.57,0.559,0.566
NCI-H23,,0.814,0.873,0.625,0.666,1.07,0.892,1.22,1.16,0.446,0.334,0.37,0.486,0.655,0.654,0.714,0.774
NCI-H661,0.591,0.821,1.04,0.921,1.06,0.731,0.731,1.11,1.21,0.35,0.345,0.352,0.35,0.766,0.877,0.932,0.971
NCI-H650,,0.332,0.402,0.314,0.294,0.802,,1.05,1.07,0.662,,0.801,0.893,1.22,0.932,0.92,0.958
NCI-H2009,0.228,0.308,0.268,0.209,0.224,1.29,1.15,1.22,1.3,0.765,0.729,0.728,0.988,1.12,1.08,1.03,1.15
LC-2-ad,,0.802,0.518,0.512,0.677,1.08,1.08,1.12,1.22,0.375,0.4,0.465,0.497,0.275,0.271,0.269,0.274
HCC-366,0.197,0.692,0.68,0.627,0.584,1.01,0.969,1.12,0.634,0.156,0.095,0.0851,0.0835,0.171,0.149,0.203,0.165
UMC-11,0.43,0.462,0.41,0.446,0.501,0.717,0.666,0.689,0.827,0.202,0.207,0.186,0.198,0.908,0.711,0.755,0.922
PC-3 [JPC-3],0.882,1.06,0.925,0.881,1.03,0.836,0.796,0.966,0.809,0.883,0.896,0.922,0.957,1.23,1.08,1.23,1.07
NCI-H596,,0.624,0.742,0.544,0.646,1.2,0.963,0.962,1.25,0.8,0.859,0.87,1.09,0.535,0.455,0.567,0.534
NCI-H441,,0.623,0.689,0.55,0.456,0.641,0.463,0.492,0.575,0.722,0.546,0.478,0.641,0.24,0.233,0.273,0.238

Cell Line,relative viability ([1]; first compound 0.003 µM),relative viability ([1]; first compound 0.009487 µM),relative viability ([1]; first compound 0.03 µM),relative viability ([1]; first compound 0.09487 µM),relative viability ([1]; first compound 0.3 µM),relative viability ([2]; first compound 0.02 µM),relative viability ([2]; first compound 0.2 µM),relative viability ([2]; first compound 0.6325 µM),relative viability ([2]; first compound 2 µM),relative viability ([3]; first compound 0.02 µM),relative viability ([3]; first compound 0.2 µM),relative viability ([3]; first compound 0.6325 µM),relative viability ([3]; first compound 2 µM),relative viability ([4]; first compound 0.02 µM),relative viability ([4]; first compound 0.2 µM),relative viability ([4]; first compound 0.6325 µM),relative viability ([4]; first compound 2 µM)
LOU-NH91,0.41,0.573,0.582,0.49,0.568,0.507,0.502,0.513,0.532,0.75,0.657,0.677,0.628,0.383,0.366,0.385,0.412
IA-LM,,,,,,0.787,0.796,0.872,0.919,,,,,,,,
EBC-1,,,,,,0.622,0.545,0.587,0.603,,,,,,,,
NCI-H727,,0.479,0.434,,0.568,0.657,0.743,0.939,0.976,0.738,0.809,0.572,0.665,,,,
NCI-H1395,0.375,0.462,0.396,0.409,0.366,,,,,0.686,0.767,0.75,0.966,0.864,0.851,0.831,1.01
NCI-H2126,0.582,0.642,0.681,0.713,0.69,1.11,1.06,1.11,1.25,0.816,0.859,0.783,1.04,0.717,0.659,0.676,0.624
LCLC-97TM1,0.574,0.847,0.843,0.36,0.534,0.526,0.592,0.667,0.709,0.175,0.183,0.301,0.252,0.167,0.171,0.141,0.193
NCI-H522,,0.862,0.671,0.83,0.899,,,,,0.522,0.551,0.502,0.588,1.08,0.891,0.971,0.999
HCC-44,,,,,,0.909,0.856,0.845,0.992,0.765,0.893,1.05,1.3,0.615,0.652,0.653,0.678
Calu-6,,,,,,1.04,1.12,1.24,1.16,,,,,,,,
NCI-H2342,0.288,0.309,0.344,0.323,0.334,,,,,0.527,0.468,0.484,0.524,0.771,0.857,0.796,0.796
LK-2,0.208,0.274,,0.285,0.276,,,,,0.153,0.173,0.157,0.168,0.277,0.272,0.236,0.247
NCI-H1944,0.197,0.24,0.236,0.244,0.178,,,,,0.252,0.245,0.252,0.253,0.58,0.603,0.635,0.382
ABC-1,0.64,0.531,,0.58,0.799,0.35,,0.26,0.329,0.152,0.162,0.18,0.207,,,,
NCI-H1703,,,,,,0.286,0.37,0.255,0.289,,,,,,,,
NCI-H1793,,0.503,,,0.399,,,,,0.344,0.309,0.248,0.322,0.884,,0.806,1.06
NCI-H2170,0.597,0.483,0.53,0.618,0.544,,,,,0.722,0.696,0.753,0.871,0.275,0.264,0.309,0.278
NCI-H358,0.185,0.197,0.233,0.487,0.392,,,,,0.0998,0.0877,0.0872,0.115,0.176,0.172,0.168,0.173
NCI-H1792,,0.839,0.892,0.857,0.905,0.863,0.978,0.966,1.21,,,,,0.815,0.777,0.881,0.862
NCI-H1623,,0.521,0.585,0.611,0.619,,,,,0.444,0.415,0.437,0.426,,,,

# Source: the supplement of paper PMC10307832
